In one series the target is T1, dopamine 2 receptor (Rattus norvegicus, UniProt P61169).
T1 construct: membrane fractions prepared from the brain a Wistarstrain male rat; from tissue; host or cells: rat brain striatum (Wistar, male), membrane fraction
In words: [3H]spiperone binding assay (affinity for dopamine 2 receptor). To be noted: rat striatal membranes, 0.5 nM [3H] spiperone, 37° C., 10 minutes. The arrangement: species or system Wistar-strain male rat. As for the experimental part:
(§1) Striatal membranes fractions were prepared from a rat brain, and the affinity of the compounds of this invention on dopamine 2 receptors was determined by using [^3 H] spiperone assay from membranes fractions as an index. Moreover, frontal cortex membranes were prepared from a rat brain, and the affinity of the test drugs on serotonine 2 receptor was determined by using [^3 H] ketenserin binding assay. It was shown that the compounds of general formula (1) of the invention have marked anti-dopamine activity and anti-serotonine activity.
[^3 H]spiperone binding assay
The affinity of the compounds of this invention to the dopamine 2 receptor was determined on the basis of the ability to substitute [^3 H] spiperone from stratal membrane fractions prepared from the brain a Wistarstrain male rat.
The rat was decapitated, and the brain was obtained. The striatum was homogenized in 40 volumes of 50 mM Tris-HCl buffer (pH 7.6), and then centrifuged. The pellets were again homogenized in 50 volumes of the same buffer, and used in a binding test. The binding test was conducted by the following procedure.
The stria (original tissue weight 20 mg/ml), 100 microliters of a test drug and 0.5 nM of [^3 H] spiperone were incubated at 37° C. for 10 minutes in 50 mM Tris-HCl buffer (pH 7.6). Then, the reaction mixture was suction-filtered through a glass fiber filter (Watmann GF/B) and washed with a buffer three times.
The filter was put in a scintillation cocktail (ACSII, Amersham Co.), and after mixing, left to stand overnight. The radioactivity held on the filter was measured by a liquid scintillation counter. The nonspecific binding was measured in the presence of 1 μM of (+) butaclamol. The concentration of the test drug which inhibited 50% of a specific binding was determined from the graph and defined as IC50. Ki was calculated from the following equation. [formula]

Another series addresses T2, serotonine 2 receptor (Rattus norvegicus, UniProt P14842).
T2 construct: frontal cortex fraction prepared from the brain of a Wistar male rat; from tissue; host or cells: rat brain frontal cortex (Wistar, male), membrane fraction
In words: [3H]ketanserin binding assay (affinity for serotonine 2 receptor). Further details: species or system Wistar male rat. To be noted: rat frontal cortex, 1 nM [3H] ketanserin, 37° C., 10 minutes. Here is the method:
as §1
[^3 H] ketanserin binding assay
The affinity of the compound of the invention was determined on the basis of the ability to substitute [^3 H] ketanserin from a frontal cortex fraction prepared from the brain of a Wistar male rat.
The rat was decapitated, and the brain was obtained. The frontal cortex was homogenized in 40 volumes of 50 mM Tris-HCl buffer (pH 7.6), and then centrifuged. The pellets were again homogenized in 100 volumes of the same buffer, and used in a binding test. The binding test was conducted by the following procedure.
The frontal cortex (original tissue weight 1 mg/ml), 100 microliters of a test drug and 1 nM of [^3 H] ketanserin were incubated at 37° C. for 10 minutes in 50 mM Tris-HCl buffer (pH 7.6). Then, the reaction mixture was suction-filtered through a glass fiber filter (Watmann GF/B) and washed with a buffer three times.
The filter was put in a scintillation cocktail (ACSII, Amersham Co.), and after mixing, left to stand overnight. The radioactivity held on the filter was measured by a liquid scintillation counter. The nonspecific binding was measured in the presence of 1 μM of methysergide. The concentration of the test drug which inhibited 50% of a specific binding was determined from the graph and defined as IC5. Ki was calculated from the following equation. [formula]

In another series the test system is Purkinje fiber. In words: Effect on APD (APD75, field-stimulated right ventricular free wall). To be noted: Canis lupus familiaris, purkinje, 20 min, 20 minutes incubation, 37° C., 1 Hz, control before drug = 100%, read-out: APD75 % (percent change in APD75); for activation at 3 µg/mL: dose 3 μg/ml; for activation at 10 µg/mL: dose 10 μg/ml; for activation at 1 µg/mL: dose 1 μg/ml. It is filed as cell-based, adult mongrel dog. As for the experimental part: The pharmacological effects of the compounds of this invention represented by general formula (1) were studied. By using the heart of an adult mongrel dog, the activity of the compounds of general formula (1) were tested in vitro and in vivo. The heart of an anaethetized dog was extracted and suspended in a chamber at 37° C. in Tyrode's solution. The drug was added to Tyrode's solution being perfused through the heart specimen, and electrophysiological effects of the drug on cardiac action potential duration (APD) and maximum rate of depolarization were studied. An anaethetized dog was cut open at the chest.
An adult mongrel dog was anaethetized with intravenous administration of pentobarbital, 30 mg/kg. The heart was quickly removed, and the right ventricular free wall was dissected in the Tyrode's solution. The right ventricular free wall was fixed within an incubator at 37° C., and field stimulation at 1 Hz was carried out. Intracellular potentials were measured by piercing glass microelectrodes (10-20 megaohms) into the Purkinje fiber and the wave form of cardiac action potential drawn on an oscilloBraun tube via an amplifier was analyzed by a computer. Value of APD was obtained at 75% of full repolarization (APD75). The drug was added to Tyrode's solution (20 ml) perfused through the specimen. The effect of the drug was expressed by a percent change in APD75 after incubation for 20 minutes with the control value of APD before application of the drug being taken as 100%.

The subject of series [1] is right ventricle (effective refractory period). Kind of series: Activity on ERP of the right ventricle. It is filed as in vivo, adult mongrel dog. To be noted: Canis lupus familiaris, iv, ERP before drug = 100%, read-out: ERP % (ERP prolonging activity); for change in vivo at 0.1 mg/kg: 0.1 mg/kg i.v.; for change in vivo at 0.3 mg/kg: 0.3 mg/kg i.v.; for change in vivo at 1 mg/kg: 1 mg/kg i.v.; for change in vivo at 3 mg/kg: 3 mg/kg i.v. As for the experimental part:
The pharmacological effects of the compounds of this invention represented by general formula (1) were studied. By using the heart of an adult mongrel dog, the activity of the compounds of general formula (1) were tested in vitro and in vivo. The heart of an anaethetized dog was extracted and suspended in a chamber at 37° C. in Tyrode's solution. The drug was added to Tyrode's solution being perfused through the heart specimen, and electrophysiological effects of the drug on cardiac action potential duration (APD) and maximum rate of depolarization were studied. An anaethetized dog was cut open at the chest. […] In an anaethetized and open-chested adult mongrel dug, a silver-silver chloride electrode was sutured to the right ventricle, and ventricular pacing was performed at a stimulation interval of 400 msec for a duration time of 4 msec, twice diastolic threshold. Then, a small amount of alcohol was injected through the sinus artery to extinguish the pacemaker activity, and under ventricular pacing, ERP was measured. Ten stimulations were taken as one train, and the interval between trains when the response to the first stimulation disappeared was defined as ERP. […] ERP before drug administration (intravenously or intraduodenally) was taken as 100%, and ERP prolonging activity of the drugs was expressed by %.

The nature of another series: in vivo. To be noted: mouse, in vivo, po. Here is the method:
By using male ddY-strain 5-week old mice (3 to 4 per group), the compounds of general formula (1) were each administered orally or intraperitoneally as a solution in saline or as a suspension in methyl cellulose, and 24 hours after the administration, the toxicity of the compounds was evaluated.

Where [2] appears, read: LD50 p.o., p.o., 24 hours after administration, male ddY mice.

T2 sequence (P14842 whole entry): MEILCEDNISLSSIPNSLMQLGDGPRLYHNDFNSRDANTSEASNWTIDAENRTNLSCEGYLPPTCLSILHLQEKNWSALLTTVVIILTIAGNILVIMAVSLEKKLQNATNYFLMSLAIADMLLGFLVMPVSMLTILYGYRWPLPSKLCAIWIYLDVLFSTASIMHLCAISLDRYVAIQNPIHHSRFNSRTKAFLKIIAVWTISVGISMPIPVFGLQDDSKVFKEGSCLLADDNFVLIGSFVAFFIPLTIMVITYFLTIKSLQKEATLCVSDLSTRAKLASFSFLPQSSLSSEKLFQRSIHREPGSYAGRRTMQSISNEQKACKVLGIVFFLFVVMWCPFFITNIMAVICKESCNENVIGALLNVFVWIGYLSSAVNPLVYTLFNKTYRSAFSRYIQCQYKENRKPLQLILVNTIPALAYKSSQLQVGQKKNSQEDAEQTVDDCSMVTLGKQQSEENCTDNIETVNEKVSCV
T1 sequence (P61169 whole entry): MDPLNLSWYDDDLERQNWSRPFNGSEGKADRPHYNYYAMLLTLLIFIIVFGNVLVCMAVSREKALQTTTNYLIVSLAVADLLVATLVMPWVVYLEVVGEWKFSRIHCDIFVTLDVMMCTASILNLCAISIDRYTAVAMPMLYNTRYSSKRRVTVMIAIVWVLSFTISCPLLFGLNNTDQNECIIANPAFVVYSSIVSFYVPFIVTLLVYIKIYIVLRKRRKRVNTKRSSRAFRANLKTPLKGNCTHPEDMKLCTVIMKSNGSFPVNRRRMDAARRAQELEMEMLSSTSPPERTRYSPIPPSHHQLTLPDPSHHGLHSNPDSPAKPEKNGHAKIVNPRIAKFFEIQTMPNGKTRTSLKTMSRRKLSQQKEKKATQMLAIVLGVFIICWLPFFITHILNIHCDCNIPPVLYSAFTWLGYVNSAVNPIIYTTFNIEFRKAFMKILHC

Turning to `O=C1COc2cc(OCCCN(Cc3ccccc3)Cc3ccccc3)ccc21` [Compound 176], the Ki (usually the dissociation constant of the complex between target and ligand, obtained from inhibition or displacement) on dopamine 2 receptor was greater than 400 nM; on serotonine 2 receptor it was greater than 600 nM.

Turning to `CCCCCCC[N+](CC)(CC)CCCOc1ccc2oc(=O)cc(C)c2c1` [Compound 630], in the series on Purkinje fiber, the activation at 3 µg/mL was 25% and the activation at 10 µg/mL is 48%. For the same compound, in series [1], the change in vivo at 0.1 mg/kg is 3%, the change in vivo at 0.3 mg/kg was 5% and the change in vivo at 1 mg/kg came to 8%. Further, in “in vivo” (setting [2]), the median lethal dose (LD50) (in general, the dose at which mortality reaches 50%) at 24 h was greater than 300 mg/kg.

With `CC1CCCCN1CCCOc1ccc2c(c1)OCC2=O` (stereo not drawn) [Compound 1114], in the series with Purkinje fiber, the activation at 1 µg/mL is 11%, the activation at 3 µg/mL was found to be 22% and the activation at 10 µg/mL is 35%. For the same compound, in series [1], the change in vivo at 1 mg/kg came out at 3% and the change in vivo at 3 mg/kg came to 8%. This compound also displayed a 50% lethal dose (LD50) at 24 h in the series “in vivo” (setting [2]) greater than 300 mg/kg.

For the compound `CC1CCN(CCCOc2ccc3c(c2)OCC3=O)CC1` [Compound 1122], in the series with Purkinje fiber, the activation at 1 µg/mL turned out to be 4%, the activation at 3 µg/mL is 15% and the activation at 10 µg/mL is 42%. In series [1], the change in vivo at 1 mg/kg came out at 9% and the change in vivo at 3 mg/kg was determined as 15%. This compound came in with an LD50 at 24 h in the series “in vivo” (setting [2]) greater than 300 mg/kg.

Consider `O=C1COc2cc(OCCCN3CCC(c4ccccc4)CC3)ccc21` [Compound 1138], for which the Ki on dopamine 2 receptor was determined as 329 nM; at serotonine 2 receptor it was 173 nM.

For `O=C1COc2cc(OCCCN3CCC(O)(c4ccc(Cl)cc4)CC3)ccc21` [Compound 1154], the Ki at dopamine 2 receptor was greater than 400 nM; on serotonine 2 receptor, greater than 298 nM.

As to `O=C1COc2cc(OCCCN3CCc4ccccc4C3)ccc21` [Compound 1162], the Ki on dopamine 2 receptor is greater than 400 nM; at serotonine 2 receptor, greater than 600 nM.

Take `CN1CCN(CCCOc2ccc3c(c2)OCC3=O)CC1` [Compound 1178]: the results for the Ki at dopamine 2 receptor and on serotonine 2 receptor were greater than 400 nM and greater than 600 nM, respectively.

In the case of `O=C1COc2cc(OCCCN3CCN(Cc4ccccc4)CC3)ccc21` [Compound 1182], the values for the Ki at dopamine 2 receptor and on serotonine 2 receptor were greater than 400 nM and greater than 600 nM, respectively.

As to `CN1C(=O)Cc2cnc(N3CCN(CCCOc4ccc5c(c4)OCC5=O)CC3)nc21` [Compound 1186], the Ki on dopamine 2 receptor was greater than 400 nM; at serotonine 2 receptor it was 315 nM.

On to `O=C1COc2cc(OCCCN3CCC(N4CCCCC4)CC3)ccc21` [Compound 1228], for which the Ki on dopamine 2 receptor is greater than 400 nM; at serotonine 2 receptor it was greater than 600 nM.

Regarding `O=C1COc2cc(OCCCN3CCC4(CC3)C(=O)NCN4c3ccccc3)ccc21` [Compound 1246], the results for the inhibition constant Ki on dopamine 2 receptor and at serotonine 2 receptor were greater than 400 nM and greater than 600 nM, respectively.

For `O=C1COc2cc(OCCCN3CCN(c4ccccn4)CC3)ccc21` [Compound 1264], the inhibitory constant (Ki) at dopamine 2 receptor is greater than 400 nM; at serotonine 2 receptor, greater than 600 nM.

Regarding `CCC1CCN(CCCOc2ccc3c(c2)OCC3=O)CC1` [Compound 1274], in the series on Purkinje fiber, the activation at 1 µg/mL is 6% and the activation at 3 µg/mL turned out to be 19%. In addition, in series [1], the change in vivo at 0.1 mg/kg worked out at 0%, the change in vivo at 0.3 mg/kg came to 6.7%, the change in vivo at 1 mg/kg amounted to 13.3% and the change in vivo at 3 mg/kg came to 13.3%. Also, in the series “in vivo”, the median lethal dose (LD50) at 24 h is less than 300 mg/kg.

For `CC(C)C1CCN(CCCOc2ccc3c(c2)OCC3=O)CC1` [Compound 1278], in the series on Purkinje fiber, the activation at 3 µg/mL worked out at 9% and the activation at 10 µg/mL was 24%. For the same compound, in series [1], the change in vivo at 0.1 mg/kg amounted to 1.6 ± 1.6%, the change in vivo at 0.3 mg/kg turned out to be 4.8 ± 1.6%, the change in vivo at 1 mg/kg came to 13 ± 2.4% and the change in vivo at 3 mg/kg was 19.8 ± 0.6%. Also, the LD50 at 24 h in the series “in vivo” (setting [2]) was greater than 300 mg/kg.

As to `CCOC(=O)C1CCN(CCCOc2ccc3c(c2)OCC3=O)CC1` [Compound 1282], in the series with Purkinje fiber, the activation at 3 µg/mL was determined as 11% and the activation at 10 µg/mL came to 19%. In addition, in series [1], the change in vivo at 0.1 mg/kg worked out at 0%, the change in vivo at 0.3 mg/kg was 0%, the change in vivo at 1 mg/kg came out at 6% and the change in vivo at 3 mg/kg worked out at 6%. In the series “in vivo” (setting [2]), the LD50 at 24 h is greater than 300 mg/kg.

With `O=C1COc2cc(OCCCN3CCC(CO)CC3)ccc21` [Compound 1290], in the series with Purkinje fiber, the activation at 3 µg/mL is 11% and the activation at 10 µg/mL worked out at 28%. Moreover, in series [1], the change in vivo at 0.1 mg/kg is 0%, the change in vivo at 0.3 mg/kg turned out to be 5.9%, the change in vivo at 1 mg/kg stood at 11.8% and the change in vivo at 3 mg/kg amounted to 17.7%. In the series “in vivo”, this compound came in with an LD50 at 24 h of less than 300 mg/kg.

Compound `O=C1COc2cc(OCCCN3CCC4(CC3)OCCO4)ccc21` [Compound 1298] displayed an LD50 at 24 h in “in vivo” (setting [2]) greater than 300 mg/kg. Besides, the results for the inhibition constant (Ki) on dopamine 2 receptor and at serotonine 2 receptor were greater than 400 nM and 382 nM, respectively.

In the case of `O=c1cc(-c2ccccc2)c2ccc(OCCCN3CCC(Cc4ccccc4)CC3)cc2o1` [Compound 1330], the inhibitory constant (Ki) at dopamine 2 receptor was greater than 400 nM; on serotonine 2 receptor, greater than 600 nM.

For the compound `O=C1NC(=O)c2cc(OCCCN3CCC(Cc4ccccc4)CC3)ccc21` [Compound 1334], the inhibition constant Ki was greater than 400 nM on dopamine 2 receptor and 227 nM on serotonine 2 receptor.

For `CC(=O)Oc1coc2cc(OCCCN3CCC(Cc4ccccc4)CC3)ccc12` [Compound 1344], the results for the Ki at dopamine 2 receptor and on serotonine 2 receptor were greater than 400 nM and greater than 600 nM, respectively.

(Values after patent US5192799A, “Coumaran group containing amine compounds and their acid addition salts and quaternary ammonium salts and the use thereof as anti arrhythmic agents and as psychotropic agents” (Mitsui Petrochemical Industries, Ltd., priority 1987, dated 1993).)
